The values below come from patent US20030053966A1, “Insoluble organic UV screening agents of aryl vinylene ketone type, and cosmetic use thereof” (priority 2001, published 2003).

Usually melting point stands for the temperature, or range, at which the solid turns liquid.

Data set [1] can be described thus: UV absorption of the compound in solution. The format is physicochemical.
Where [2] appears, read: solution in DMSO/CH2Cl2, at λmax.

`CCCCC(CC)CNS(=O)(=O)CC12CCC(C(=Cc3ccc(C=C4C(=O)C5(CS(=O)(=O)NCC(CC)CCCC)CCC4C5(C)C)cc3)C1=O)C2(C)C` (stereo not drawn) [Example 2, 1,4-phenylenebis(2-ethylhexyl 3,3′-methylidenecamphor-10,10′-sulphonamide)] gave a λmax in data set [1] (solution in CH2Cl2) of 342 nm. Further, in data set [1] (solution in CH2Cl2, at λmax), the E1% was found to be 522 and the εmax is 41 000.
Consider `C[Si](C)(C)CCCOc1ccc(/C=C2\CC/C(=C\c3ccc(OCCC[Si](C)(C)C)cc3)C2=O)cc1` [Example 8, 2,5-bis[4-(3-trimethylsilanylpropyloxy)-benzylidene]cyclopentanone], for which the melting point fell in the range of 205 to 207 °C. In data set [1] (solution in CHCl3), this compound returned a λmax of 391 nm. Moreover, in data set [1] (solution in CHCl3, at λmax), the E1% was found to be 940 and the εmax is 49 100.
On to `CC12CCC(/C(=C\c3ccc(/C=C4/C(=O)C5(C)CCC4C5(C)C)cc3)C1=O)C2(C)C` [Example 5, 1,4-phenylenebis(3-methylidenecamphor)], for which the melting point amounted to 234 °C.
The same measure, in the same setting: the figure for `CC12CCC(/C(=C\c3cccc(/C=C4/C(=O)C5(C)CCC4C5(C)C)c3)C1=O)C2(C)C` [Example 3, 1,3-phenylenebis(3-methylidenecamphor)] is 152 °C.
The compound `Cc1c(C)c(C=C2C(=O)C3(C)CCC2C3(C)C)c(C)c(C)c1C=C1C(=O)C2(C)CCC1C2(C)C` [Example 6, (2,3,5,6-tetramethyl)-1,4-phenylenebis-(3-methylidenecamphor)] came in with a λmax in data set [1] (solution in CH2Cl3) of 286 nm. In data set [1] (solution, at λmax), the E1% was determined as 270 and the εmax was 12 200.
On to `CCNS(=O)(=O)CC12CCC(C(=Cc3ccc(C=C4C(=O)C5(CS(=O)(=O)NCC)CCC4C5(C)C)cc3)C1=O)C2(C)C` [Example 1, 1,4-phenylenebis(ethyl 3,3′-methylidenecamphor-10,10′-sulphonamide)], for which the λmax in data set [1] (solution in DMSO/CH2Cl2) amounted to 342 nm. In data set [1] (setting [2]), the E1% amounted to 654 and the εmax is reported as 40350.
